Measurements as given in paper PMC9140012, “Epigenetic-Like Stimulation of Receptor Expression in SSTR2 Transfected HEK293 Cells as a New Therapeutic Strategy” (Cancers, 2022).
Structures can show the parent of a compound that is named as a salt. Where two headings read alike, the source gives them in different places.

Legend:
[1] = test system: Neuroendocrine Tumor Cells; parameters: method as in PMID 30796167; conditions: 5-fluorouracil in combination with decitabine or tacedinaline; cited from earlier work
[2] = test system: HEKsst2; assay: Chemotoxicity, colony formation assay (CFA), HEKsst2; assay type: cell-based; conditions: for IC50: read-out: half maximum inhibitor concentrations (IC50)
Method: (§1) HEK293 cells were obtained from the German Resource Center for Biological Material (DSMZ, Braunschweig, Germany) and grown in Dulbecco’s modified Eagle´s medium supplemented with 10% fetal calf serum (FCS) in a humidified atmosphere containing 5% CO2. Cells were transfected with plasmid, encoding murine HA-tagged SSTR2 receptors using lipofectamine according to the manufacturing instructions (Thermofisher, Darmstadt, Germany). Stable transfectants were selected in the presence of 500 µg/mL G-418 and characterized using radioligand binding assays, Western blot analyses, surface ELISA assays and immunocytochemistry as described previously. Non-transfected HEK293 cells were maintained under equal conditions as HEKsst2 except for the addition of G-418. In the following, HEK293 cells and SSTR2 transfected HEK293 cells are termed as HEK and HEKsst2, respectively. The human prostate carcinoma cell line PC3 (ATCC®, Manassas, VA, USA) was cultured in a RPMI medium with 10% (v/v) FCS and 1% (v/v) non-essential amino acids (NEA). […] The culture medium of each cell line was renewed every 2–3 days. Via a PCR test, each cell line is proven to be free of mycoplasmas.
(§2) HEKsst2 and PC3 were plated in T75 flasks on day zero. […] Cells were incubated in DMEM (HEKsst2) or an RPMI 1640 (PC3) nutrient-deficient medium (lacking medium additives and FCS) until day three at 37 °C. For a further two days, HEKsst2 and PC3 were incubated in a full medium (with medium additives and FCS). On day five, cells were trypsinized and plated for the CFAs.
(§3) To determine the radiosensitivity and radiotoxicity, the clonogene cell survival was analyzed. Colony formation assays were performed as described earlier. […] Briefly, after detaching the treated cells, an aliquot of the cell suspension per dose point was distributed in T25 culture flasks for the colony formation test and is placed in an incubator for 7 (HEKsst2) or 10 days (PC3). To stop colony formation, the cells were fixed with ethanol 80% (v/v) followed by staining with crystal violet solution. The colony counting was carried out under a microscope (25× magnification). Colonies of more than 50 cells were scored as survivors. The plating efficiency (PE) and the survival rate (survival fraction SF) were calculated for irradiated and unirradiated cells based on the number of seeded cells.
(§4) To examine the statistical significance, an unpaired student’s t-test was used. A difference between two independent samples is significant if the probability of error p ≤ 0.05. For the statistical evaluation, MS Office Excel was used. […]

[3] = test system: PC3; assay: Chemotoxicity, colony formation assay (CFA), PC3; assay type: cell-based, human; conditions: for Survival Fraction: day one to three in deficient RPMI 1640, 2 days full medium, CFA, ± SD; for IC50: Homo sapiens, PC-3
Method: as §1, §2, §3, §4

[4] = test system: cell lines HEKsst2 and PC3; assay: IC20/IC40 of single epidrugs by colony formation assay, HEKsst2 and PC3; assay type: cell-based
Method: as §2
To determine the radiosensitivity and radiotoxicity, the clonogene cell survival was analyzed. Colony formation assays were performed as described earlier. The following steps have been done for each of the treatment procedures. Briefly, after detaching the treated cells, an aliquot of the cell suspension per dose point was distributed in T25 culture flasks for the colony formation test and is placed in an incubator for 7 (HEKsst2) or 10 days (PC3). To stop colony formation, the cells were fixed with ethanol 80% (v/v) followed by staining with crystal violet solution. The colony counting was carried out under a microscope (25× magnification). Colonies of more than 50 cells were scored as survivors. The plating efficiency (PE) and the survival rate (survival fraction SF) were calculated for irradiated and unirradiated cells based on the number of seeded cells.
To determine the Bmax values and the Kd, the GraphPad Prism 9.0 software was used. Confidence Intervals (CI) express a 95% likelihood of the nonlinear fit.

[5] = test system: PC3; conditions: PC3 compared to HEKsst2; cited from earlier work
Description: The radiosensitivity expressed as SF after external X-ray irradiation is similar for the cell lines HEKsst2 and PC3 (Figure 4). […] One exception is the dose point at 0.6 Gy X-rays for not stimulated vs. stimulated PC3 cells. […] Whereas the radiosensitivity of non-stimulated HEK ...

[6] = parameters: method as in PMID 25600060; conditions: fractionated external radiation; cited from earlier work
[7] = test system: relapsed or refractory neuroblastoma; parameters: method as in PMID 34270348; conditions: I-131-MIBG in combination with vorinostat, phase II; cited from earlier work
Description: An overview of studies investigating the synergistic improvement of cancer therapy using HDACi in clinical trials is given by Hontecillas-Prieto et al..

O=c1[nH]cc(F)c(=O)[nH]1 [5-fluorouracil]
radiosensitization [1]: significant effects on radiosensitization

Nc1ncn([C@H]2C[C@H](O)[C@@H](CO)O2)c(=O)n1 [5-aza-dC, 5-aza-2′-deoxycytidine]
Survival Fraction ([2]; 0.01 µM 5-aza-dC, added day one to day three in nutrient-deficient DMEM, then 2 days full medium, CFA day five, mean ± SD, three independent trials in triplicate): 97.9 ± 1.8%
Survival Fraction ([2]; 0.05 µM 5-aza-dC, day one to three in deficient medium, 2 days full medium, CFA, ± SD): 118.0 ± 31%
Survival Fraction ([2]; 0.1 µM 5-aza-dC, day one to three in deficient medium, 2 days full medium, CFA, ± SD): 83.2 ± 4.8%
Survival Fraction ([2]; 0.5 µM 5-aza-dC, day one to three in deficient medium, 2 days full medium, CFA, ± SD): 96.6 ± 13.2%
Survival Fraction ([2]; 1.0 µM 5-aza-dC, day one to three in deficient medium, 2 days full medium, CFA, ± SD): 93.7 ± 1.3%
Survival Fraction ([2]; 5.0 µM 5-aza-dC, day one to three in deficient medium, 2 days full medium, CFA, ± SD): 42.3 ± 4.8%
Survival Fraction ([2]; 10 µM 5-aza-dC, day one to three in deficient medium, 2 days full medium, CFA, ± SD): 18.6 ± 0.8%
Survival Fraction ([2]; 25 µM 5-aza-dC, day one to three in deficient medium, 2 days full medium, CFA, ± SD): 1.7 ± 0.4%
IC50 ([2]; 5-aza-dC as single epidrug, HEKsst2, CFA): 3.9 µM
Survival Fraction ([3]; 0.01 µM 5-aza-dC): 67.1 ± 3.3%
Survival Fraction ([3]; 0.05 µM 5-aza-dC): 52.1 ± 19.0%
Survival Fraction ([3]; 0.1 µM 5-aza-dC): 69.4 ± 2.1%
Survival Fraction ([3]; 0.5 µM 5-aza-dC): 41.6 ± 1.8%
Survival Fraction ([3]; 1.0 µM 5-aza-dC): 24.9 ± 2.0%
Survival Fraction ([3]; 5.0 µM 5-aza-dC): 27.5 ± 3.2%
Survival Fraction ([3]; 10 µM 5-aza-dC): 9.4 ± 0.3%
Survival Fraction ([3]; 25 µM 5-aza-dC): 1.9 ± 0.02%
IC50 [3]: 0.3 µM
IC20 ([4]; 5-aza-dC, value used for both HEKsst2 and PC3, CFA): 0.25 µM
survival of 5-aza-dC treated cells [5]: lower survival

CCCC(CCC)C(=O)O [VPA, valproic acid sodium salt]
Survival Fraction ([2]; 0.5 mM VPA, day one to three in deficient medium, 2 days full medium, CFA, ± SD): 78.7 ± 10.8%
Survival Fraction ([2]; 1.0 mM VPA, day one to three in deficient medium, 2 days full medium, CFA, ± SD): 67.5 ± 15.9%
Survival Fraction ([2]; 2.5 mM VPA, day one to three in deficient medium, 2 days full medium, CFA, ± SD): 18.5 ± 2.2%
Survival Fraction ([2]; 5.0 mM VPA, day one to three in deficient medium, 2 days full medium, CFA, ± SD): 21.0 ± 5.1%
Survival Fraction ([2]; 10 mM VPA, day one to three in deficient medium, 2 days full medium, CFA, ± SD): 53.5 ± 5.8%
Survival Fraction ([2]; 25 mM VPA, day one to three in deficient medium, 2 days full medium, CFA, ± SD): 8.0 ± 0.8%
IC50 [2]: 1850 µM
Survival Fraction ([3]; 0.1 mM VPA): 95.6 ± 4.5%
Survival Fraction ([3]; 0.5 mM VPA): 95.6 ± 2.3%
Survival Fraction ([3]; 1.0 mM VPA): 72.6 ± 11.6%
Survival Fraction ([3]; 2.5 mM VPA): 69.4 ± 6.0%
Survival Fraction ([3]; 5.0 mM VPA): 35.1 ± 4.6%
Survival Fraction ([3]; 10 mM VPA): 24.0 ± 1.2%
Survival Fraction ([3]; 25 mM VPA): 1.2 ± 1.1%
Survival Fraction ([3]; 50 mM VPA): 1.7 ± 1.1%
IC50 ([3]; read-out: IC50): 3900 µM
IC20 [4]: 600 µM
IC40 ([4]; VPA, value used for both HEKsst2 and PC3, CFA): 1000 µM
radiosensitization [6]: radiosensitization effect

O=C(CCCCCCC(=O)Nc1ccccc1)NO [vorinostat]
radiation sensitizing [7]: beneficial radiation sensitizing properties
